What was measured:
[1] = Cytotoxicity against human HMC1 cells assessed as cell viability; assay type: cell-based
HMC1 = assay: Inhibition of A23187-induced IL-6 production in human HMC1 cells incubated for 30 mins prior to A23187 challenge measured after 24 hrs by ELISA; assay type: functional, cell-based

Compound	IC50 [1]	IC50 (HMC1)
CC(C)=CCc1cc([C@@H]2CC(=O)c3ccc(O)c(CC=C(C)C)c3O2)ccc1O [GLABROL]	> 20 µM	0.73 µM
CC(C)=CCc1cc(C2CC(=O)c3ccc(O)c(CC=C(C)C)c3O2)c(O)cc1O (stereo not drawn)	> 20 µM	1.62 µM
Oc1ccc2c(c1)OC[C@H]1c3cc4c(cc3O[C@@H]21)OCO4 [MAACKIAIN]	> 20 µM	3.01 µM
COc1ccc(-c2cc3ccc(O)cc3o2)c(O)c1	> 20 µM	4.02 µM
